The target of experiment [1] is T1, DERAm (monomeric variant of ecDERA) (Escherichia coli, UniProt P0A6L0, K58E/Y96W).
T1 sequence (P0A6L0 1-259 K58E/Y96W): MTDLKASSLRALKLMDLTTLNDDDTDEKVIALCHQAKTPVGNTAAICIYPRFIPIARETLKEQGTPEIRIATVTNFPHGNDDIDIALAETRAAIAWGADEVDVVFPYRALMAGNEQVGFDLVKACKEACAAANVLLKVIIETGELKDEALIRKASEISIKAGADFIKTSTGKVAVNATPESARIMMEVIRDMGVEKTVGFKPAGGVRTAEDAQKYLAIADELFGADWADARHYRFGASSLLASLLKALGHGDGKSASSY
Kind of experiment: 1H-15N HSQC NMR titration, chemical shift perturbation. Format: binding.

Experiment [2] concerns the target T2, DERAm (monomeric variant of ecDERA) (Escherichia coli, UniProt P0A6L0, K58E/Y259F/Y96W).
T2 sequence (P0A6L0 1-259 K58E/Y96W/Y259F): T1 sequence (P0A6L0 1-259 K58E/Y96W) with Y259F
The experiment is described as above. It is filed as binding.

Structures are written as SMILES. Residue numbers refer to the chain shown, from its start.

In general, Kd refers to the concentration at which binding is half-saturated. `O=P(O)(O)O` [potassium phosphate]: the Kd was 18.8 ± 3.6 mM in experiment [1] and 17.9 ± 2.4 mM in experiment [2].
